# Laboratory results reported in paper PMC3319563 (PLoS ONE, 2012).
# T1: AtuGSTH1-1 (Agrobacterium fabrum, UniProt A9CFJ9)
# T1 construct: gene Atu3701; homodimer by crystal symmetry
# T1 sequence (A9CFJ9 1-230): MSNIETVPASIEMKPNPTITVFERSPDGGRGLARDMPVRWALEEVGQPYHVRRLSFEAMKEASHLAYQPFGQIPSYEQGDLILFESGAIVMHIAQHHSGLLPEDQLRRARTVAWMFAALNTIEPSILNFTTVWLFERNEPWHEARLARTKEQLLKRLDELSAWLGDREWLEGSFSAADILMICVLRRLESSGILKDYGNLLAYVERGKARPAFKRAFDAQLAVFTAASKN
# Key:
# [1] = target: T1, AtuGSTH1-1; experiment: steady-state kinetics, thioltransferase assay; format: biochemical; conditions: co-substrate GSH; 0.1 M potassium phosphate pH 6.5, 37 °C; read-out: Κm
# Description: steady-state kinetics, thioltransferase assay on AtuGSTH1-1
# [2] = target: T1, AtuGSTH1-1; experiment: steady-state kinetics, GST assay; format: biochemical; conditions: co-substrate GSH; 0.1 M potassium phosphate pH 6.5, 37 °C; read-out: Κm
# Description: steady-state kinetics, GST assay on AtuGSTH1-1
# [3] = target: T2, AtuGSTH1-1 (Agrobacterium fabrum, UniProt A9CFJ9, S25A); conditions: read-out: Km, (mM) (CDNB) / Km, (mM) (CuOOH); co-substrate GSH
# T2 construct: gene Atu3701
# [4] = target: T3, AtuGSTH1-1 (Agrobacterium fabrum, UniProt A9CFJ9, R187A); conditions: read-out: Km, (mM) (CDNB) / Km, (mM) (CuOOH); co-substrate GSH
# T3 construct: gene Atu3701
# [5] = target: T4, AtuGSTH1-1 (Agrobacterium fabrum, UniProt A9CFJ9, F22A); conditions: read-out: Km, (mM) (CDNB) / Km, (mM) (CuOOH); co-substrate GSH
# T4 construct: gene Atu3701
# [6] = substrate: CC(C)(C)OO; experiment: steady-state kinetics, GSH-dependent peroxidase assay; format: biochemical, Agrobacterium fabrum; conditions: co-substrate GSH, 0.1 M potassium phosphate pH 6.5, 37 °C
# [7] = substrate: CC(C)(OO)c1ccccc1; experiment: as above; format: biochemical, Agrobacterium fabrum; conditions: co-substrate GSH, 0.1 M potassium phosphate pH 6.5, 37 °C
molecule,measurement,setting,value
OCCSSCCO [HEDS],Km,[1],4100 ± 120 µM
"O=[N+]([O-])c1ccc(Cl)c([N+](=O)[O-])c1 [CDNB, 1-chloro-2,4-dinitrobenzene]",Km,[2],1500 ± 90 µM
same,Km,[3],1.9 ± 0.18 mM
same,Km,[4],7.1 ± 0.76 mM
same,Km,[5],3.2 ± 0.39 mM
"AtuGSTH1-1 (Agrobacterium fabrum str. C58) (protein, homodimer by crystal symmetry) MSNIETVPASIEMKPNPTITVFERSPDGGRGLARDMPVRWALEEVGQPYHVRRLSFEAMKEASHLAYQPFGQIPSYEQGDLILFESGAIVMHIAQHHSGLLPEDQLRRARTVAWMFAALNTIEPSILNFTTVWLFERNEPWHEARLARTKEQLLKRLDELSAWLGDREWLEGSFSAADILMICVLRRLESSGILKDYGNLLAYVERGKARPAFKRAFDAQLAVFTAASKN",Km,[6],1600 ± 70 µM
same,kcat,[6],2.495 ± 0.0868 s⁻¹
same,Km,[7],2700 ± 210 µM
same,kcat,[7],5.657 ± 0.101 s⁻¹
